In brackets after ≈: the same amount, converted by molar mass. Entries after “also recorded” stand apart in the source; their conditions may differ.
How the values were obtained:
[1] = target: T1, Bruton's tyrosine kinase (BTK) (Homo sapiens, UniProt Q06187); test: BTK whole blood functional assay; format: cell-based
T1 construct: from tissue; host or cells: whole blood
Source text: (§1) (S)-1-(1-acryloylpiperidin-3-yl)-2-fluoro-5,6,7,8,9,10-hexahydrocyclohepta[b]indole-4-carboxamide, hereinafter referred to as “Compound 1”, is an orally available, selective, potent inhibitor of Bruton's tyrosine kinase (BTK), thereby providing potential treatment options in BTK-driven diseases. The potency of Compound 1 for BTK inhibition is in the nM range in both cell-free enzymatic and whole blood functional assays.

[2] = CNS penetration (background statement)
Source text: as §1

[3] = Solubility testing in vehicle, HPLC (Form III); format: physicochemical; conditions: for solubility at 24 h / solubility at 72 h / solubility at 4 h: thermodynamic from solid
Protocol: In each of the following studies (Examples 6-10), the starting material was Compound 1 (free form, not salt) Form III. The material was a light yellow solid, comprising non-hygroscopic irregular shaped crystal with aggregation. The same analytical methods as described in Example 1 were employed.
Vehicle solutions were prepared as follows:
Solubility was determined at room temperature for 24 and 72 hours and at 45° C. for 4 and 24 hours. About 30/100 mg Compound 1 was added to vehicle (2 mL) and the mixture stirred at room temperature for 24 or 72 hours. The suspensions were filtered or centrifuged, and the filtrate analyzed by HPLC.

[4] = Phase 1 safety and tolerability; format: in vivo, human; conditions: healthy subjects, blinded safety data
Protocol: The study investigates the administration of Compound 1 to healthy human subjects, to evaluate the safety, tolerability and PK of single and multiple-escalating doses. Additional objectives include assessing the effect of formulation on PK, the effect of food on PK, the effect of a CYP3A inhibitor on PK and the effect of Compound 1 on CYP3A activity. PK parameters including AUC, AUC, Cmax, and Tmax are determined. An additional exploratory objective evaluates pharmacodynamics, as the time-course of BTK inhibition. The study is conducted with up to 144 healthy male and female subjects, aged 18-55 years, with a body weight over 48 kg, BMI 18.5-30.0 kg/m^2, with no clinically significant abnormalities.
Safety is assessed throughout the study and PK and PD are characterized using serial blood samples collected up to 48 hours post-dose for Compound 1 plasma concentrations, BTK target occupancy (TO) and target engagement (TE). Cerebrospinal fluid (CSF) samples are collected at 2 hours post-dose to characterize the relationship between Compound 1 plasma concentrations and CNS penetrance (CSF/Unbound plasma concentration). Compound 1 PK parameters (e.g., AUClast, AUCinf, Cmax, Tmax, t1/2) are estimated by standard noncompartmental methods. […]

T1 sequence (Q06187 whole entry, species assumed): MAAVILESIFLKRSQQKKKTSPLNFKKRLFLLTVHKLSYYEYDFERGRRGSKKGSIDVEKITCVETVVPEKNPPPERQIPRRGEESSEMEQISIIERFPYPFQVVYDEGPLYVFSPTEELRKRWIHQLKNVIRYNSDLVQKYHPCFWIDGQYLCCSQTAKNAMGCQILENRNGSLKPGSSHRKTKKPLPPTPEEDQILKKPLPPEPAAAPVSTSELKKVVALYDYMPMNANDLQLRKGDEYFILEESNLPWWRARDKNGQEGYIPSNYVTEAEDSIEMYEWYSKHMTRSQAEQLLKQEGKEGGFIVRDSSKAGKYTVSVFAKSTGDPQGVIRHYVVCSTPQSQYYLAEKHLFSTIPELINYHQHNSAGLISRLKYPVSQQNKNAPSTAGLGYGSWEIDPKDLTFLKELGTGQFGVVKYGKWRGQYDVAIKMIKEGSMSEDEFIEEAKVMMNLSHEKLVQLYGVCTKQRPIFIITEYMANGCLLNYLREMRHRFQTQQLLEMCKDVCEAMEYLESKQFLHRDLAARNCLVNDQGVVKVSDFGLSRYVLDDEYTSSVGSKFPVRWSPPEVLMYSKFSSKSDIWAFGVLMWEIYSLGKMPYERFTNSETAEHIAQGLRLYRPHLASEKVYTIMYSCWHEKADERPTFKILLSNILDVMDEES

## C=CC(=O)N1CCC[C@@H](c2c(F)cc(C(N)=O)c3[nH]c4c(c23)CCCCC4)C1 [Compound 1, (S)-1-(1-acryloylpiperidin-3-yl)-2-fluoro-5,6,7,8,9,10-hexahydrocyclohepta[b]indole-4-carboxamide]
[1]
  potency for BTK inhibition: nM range
[2]
  CNS penetration: penetrant
[3]; Capryol 90, RT, 72 h, pH 6.5, loading 50 mg/mL
  Solubility: >50000 µg/mL
[3]; Cremophor HS 15, 45° C., 24 h, pH 7.5, loading 50 mg/mL
  Solubility: >50000 µg/mL
[3]; Gelucire 44/14, 45° C., 24 h, pH 5.8, loading 50 mg/mL
  Solubility: >50000 µg/mL
[3]; Gelucire 48/16, 45° C., 24 h, loading 50 mg/mL
  Solubility: >50000 µg/mL
[3]; Labrasol, RT, 72 h, pH 6.4, loading 50 mg/mL
  Solubility: >50000 µg/mL
[3]; PEG400/TPGS(3/1), 45° C., 24 h, pH 6.1, loading 50 mg/mL
  Solubility: >50000 µg/mL
[3]; PEG400, RT, 72 h, pH 6.7, loading 50 mg/mL
  Solubility: >50000 µg/mL
[3]; PG, RT, 72 h, pH 5.2, loading 50 mg/mL
  Solubility: >50000 µg/mL
[3]; aqueous with cosolvent or surfactant or cyclodextrin, 1% SLS, RT, 24 h, pH 7.1, loading 15 mg/mL
  solubility at 24 h: 1200 µg/mL (≈ 3.13 mM)
[3]; aqueous with cosolvent or surfactant or cyclodextrin, 1% SLS, RT, 72 h, pH 7.2, loading 15 mg/mL
  solubility at 72 h: 1150 µg/mL (≈ 3 mM)
[3]; aqueous with cosolvent or surfactant or cyclodextrin, 1% Tween 80, RT, 24 h, pH 6.3, loading 15 mg/mL
  solubility at 24 h: 160 µg/mL (≈ 0.417 mM)
[3]; aqueous with cosolvent or surfactant or cyclodextrin, 1% Tween 80, RT, 72 h, pH 6.3, loading 15 mg/mL
  solubility at 72 h: 170 µg/mL (≈ 0.443 mM)
[3]; aqueous with cosolvent or surfactant or cyclodextrin, 1% polox188, RT, 24 h, pH 5.7, loading 15 mg/mL
  solubility at 24 h: 0.2 µg/mL (≈ 0.000522 mM)
[3]; aqueous with cosolvent or surfactant or cyclodextrin, 1% polox188, RT, 72 h, pH 5.7, loading 15 mg/mL
  solubility at 72 h: 0.4 µg/mL (≈ 0.00104 mM)
[3]; aqueous with cosolvent or surfactant or cyclodextrin, 1% polox407, RT, 24 h, pH 6.7, loading 15 mg/mL
  solubility at 24 h: 4 µg/mL (≈ 0.0104 mM)
[3]; aqueous with cosolvent or surfactant or cyclodextrin, 1% polox407, RT, 72 h, pH 6.9, loading 15 mg/mL
  solubility at 72 h: 1 µg/mL (≈ 0.00261 mM)
[3]; aqueous with cosolvent or surfactant or cyclodextrin, 5% PVP K30, RT, 24 h, pH 4.0, loading 15 mg/mL
  solubility at 24 h: 8 µg/mL (≈ 0.0209 mM)
[3]; aqueous with cosolvent or surfactant or cyclodextrin, 5% PVP K30, RT, 72 h, pH 4.0, loading 15 mg/mL
  solubility at 72 h: 60 µg/mL (≈ 0.156 mM)
[3]; aqueous with cosolvent or surfactant or cyclodextrin, 5% PVP VA64, RT, 24 h, pH 4.6, loading 15 mg/mL
  solubility at 24 h: 36 µg/mL (≈ 0.0939 mM)
[3]; aqueous with cosolvent or surfactant or cyclodextrin, 5% PVP VA64, RT, 72 h, pH 4.6, loading 15 mg/mL
  solubility at 72 h: 42 µg/mL (≈ 0.11 mM)
[3]; aqueous with cosolvent or surfactant or cyclodextrin, 10% HP-B-CD, RT, 24 h, pH 6.7, loading 15 mg/mL
  solubility at 24 h: 230 µg/mL (≈ 0.6 mM)
[3]; aqueous with cosolvent or surfactant or cyclodextrin, 10% HP-B-CD, RT, 72 h, pH 6.7, loading 15 mg/mL
  solubility at 72 h: 220 µg/mL (≈ 0.574 mM)
[3]; aqueous with cosolvent or surfactant or cyclodextrin, 10% SBE-B-CD, RT, 24 h, pH 6.5, loading 15 mg/mL
  solubility at 24 h: 1600 µg/mL (≈ 4.17 mM)
[3]; aqueous with cosolvent or surfactant or cyclodextrin, 10% SBE-B-CD, RT, 72 h, pH 6.5, loading 15 mg/mL
  solubility at 72 h: 1610 µg/mL (≈ 4.2 mM)
[3]; aqueous with cosolvent or surfactant or cyclodextrin, 10% TPGS, RT, 24 h, pH 5.3, loading 15 mg/mL
  solubility at 24 h: 2030 µg/mL (≈ 5.29 mM)
[3]; aqueous with cosolvent or surfactant or cyclodextrin, 10% TPGS, RT, 72 h, pH 5.3, loading 15 mg/mL
  solubility at 72 h: 2040 µg/mL (≈ 5.32 mM)
[3]; aqueous with cosolvent or surfactant or cyclodextrin, Cremophor RH40, 45° C., loading 50 mg/mL
  solubility at 4 h: 18600 µg/mL (≈ 48.5 mM)
[3]; aqueous with cosolvent or surfactant or cyclodextrin, Gelucire 44/14, 45° C., pH 5.7, loading 50 mg/mL
  solubility at 4 h: 48100 µg/mL (≈ 125 mM)
[3]; aqueous with cosolvent or surfactant or cyclodextrin, Gelucire 44/14, 45° C., 24 h, pH 5.8, loading 50 mg/mL
  solubility at 24 h: > 50000 µg/mL
[3]; aqueous with cosolvent or surfactant or cyclodextrin, Gelucire 48/16, 45° C., loading 50 mg/mL
  solubility at 4 h: 44300 µg/mL (≈ 116 mM)
[3]; aqueous with cosolvent or surfactant or cyclodextrin, Gelucire 48/16, 45° C., 24 h, loading 50 mg/mL
  solubility at 24 h: > 50000 µg/mL
[3]; aqueous with cosolvent or surfactant or cyclodextrin, Labrasol, RT, 24 h, pH 6.9, loading 50 mg/mL
  solubility at 24 h: > 50000 µg/mL
[3]; aqueous with cosolvent or surfactant or cyclodextrin, Labrasol, RT, 72 h, pH 6.4, loading 50 mg/mL
  solubility at 72 h: > 50000 µg/mL
[3]; oil or lipid, Capryol 90, RT, 24 h, pH 6.8, loading 50 mg/mL
  solubility at 24 h: 47900 µg/mL (≈ 125 mM)
[3]; oil or lipid, Capryol 90, RT, 72 h, pH 6.5, loading 50 mg/mL
  solubility at 72 h: > 50000 µg/mL
[3]; oil or lipid, Miglyol 810, RT, 24 h, pH 5.8, loading 15 mg/mL
  solubility at 24 h: 2160 µg/mL (≈ 5.63 mM)
[3]; oil or lipid, Miglyol 810, RT, 72 h, pH 5.8, loading 15 mg/mL
  solubility at 72 h: 2670 µg/mL (≈ 6.96 mM)
[3]; oil or lipid, Oleic acid, 45° C., pH 3.0, loading 15 mg/mL
  solubility at 4 h: 8500 µg/mL (≈ 22.2 mM)
[3]; oil or lipid, Oleic acid, 45° C., 24 h, pH 3.3, loading 15 mg/mL
  solubility at 24 h: 14000 µg/mL (≈ 36.5 mM)
[3]; oil or lipid, Olive oil, RT, 24 h, pH 5.2, loading 15 mg/mL
  solubility at 24 h: 440 µg/mL (≈ 1.15 mM)
[3]; oil or lipid, Olive oil, RT, 72 h, pH 5.8, loading 15 mg/mL
  solubility at 72 h: 910 µg/mL (≈ 2.37 mM)
[3]; oil or lipid, Phosal 50PG, RT, 24 h, pH 5.8, loading 50 mg/mL
  solubility at 24 h: 15600 µg/mL (≈ 40.8 mM)
[3]; oil or lipid, Phosal 50PG, RT, 72 h, pH 5.8, loading 50 mg/mL
  solubility at 72 h: 23800 µg/mL (≈ 62 mM)
[3]; oil or lipid, Sesame oil, RT, 24 h, pH 6.5, loading 15 mg/mL
  solubility at 24 h: 730 µg/mL (≈ 1.9 mM)
[3]; oil or lipid, Sesame oil, RT, 72 h, pH 6.5, loading 15 mg/mL
  solubility at 72 h: 760 µg/mL (≈ 1.98 mM)
[3]; oil or lipid, phsal 53 MCT, 45° C., pH 5.3, loading 15 mg/mL
  solubility at 4 h: 6400 µg/mL (≈ 16.7 mM)
[3]; oil or lipid, phsal 53 MCT, 45° C., 24 h, pH 5.1, loading 15 mg/mL
  solubility at 24 h: > 15000 µg/mL
[3]; organic solvent or mixture, Cremophor EL, RT, 24 h, pH 8.5, loading 50 mg/mL
  solubility at 24 h: 19500 µg/mL (≈ 50.9 mM)
[3]; organic solvent or mixture, Cremophor EL, RT, 72 h, pH 8.3, loading 50 mg/mL
  solubility at 72 h: 33000 µg/mL (≈ 86.1 mM)
[3]; organic solvent or mixture, Cremophor HS 15, 45° C., pH 7.6, loading 50 mg/mL
  solubility at 4 h: > 50000 µg/mL
[3]; organic solvent or mixture, Cremophor HS 15, 45° C., 24 h, pH 7.5, loading 50 mg/mL
  solubility at 24 h: > 50000 µg/mL
[3]; organic solvent or mixture, Cremophor RH40, 45° C., 24 h, loading 50 mg/mL
  solubility at 24 h: 33000 µg/mL (≈ 86.1 mM)
[3]; organic solvent or mixture, EtOH, RT, 24 h, pH 5.9, loading 50 mg/mL
  solubility at 24 h: 19400 µg/mL (≈ 50.6 mM)
[3]; organic solvent or mixture, EtOH, RT, 72 h, pH 6.2, loading 50 mg/mL
  solubility at 72 h: 27600 µg/mL (≈ 72 mM)
[3]; organic solvent or mixture, PEG400/TPGS(3/1), 45° C., pH 6.6, loading 50 mg/mL
  solubility at 4 h: > 50000 µg/mL
[3]; organic solvent or mixture, PEG400/TPGS(3/1), 45° C., 24 h, pH 6.1, loading 50 mg/mL
  solubility at 24 h: > 50000 µg/mL
[3]; organic solvent or mixture, PEG400, RT, 24 h, pH 5.6, loading 50 mg/mL
  solubility at 24 h: > 50000 µg/mL
[3]; organic solvent or mixture, PEG400, RT, 72 h, pH 6.7, loading 50 mg/mL
  solubility at 72 h: > 50000 µg/mL
[3]; organic solvent or mixture, PG, RT, 24 h, pH 5.1, loading 50 mg/mL
  solubility at 24 h: 48200 µg/mL (≈ 126 mM)
[3]; organic solvent or mixture, PG, RT, 72 h, pH 5.2, loading 50 mg/mL
  solubility at 72 h: > 50000 µg/mL
[4]; MAD cohort, 15 mg once daily for 10 days, fed
  safety and tolerability: generally well tolerated with no serious adverse events or early study discontinuations reported
[4]; SAD cohorts, single dose 5 to 200 mg, fed (moderate-fat meal)
  safety and tolerability: generally well tolerated with no serious adverse events or early study discontinuations reported; also recorded: well tolerated across the dose range

— patent US20250243176A1, “(S)-1-(1-ACRYLOYLPIPERIDIN-3-YL)-2-FLUORO-5,6,7,8,9,10-HEXAHYDROCYCLO HEPTA[B]INDOLE-4-CARBOXAMIDE, AND RELATED CRYSTALLINE FORMS, COMPOSITIONS, AND METHODS THEREOF” (GB005, Inc., priority 2021, published 2025)
